# Measurements reported in patent US20160038454A1, “INTRAVENOUS FORMULATIONS OF […] AS IMMUNOMODULATORS AND […] AGENTS” (priority 2013, published 2016).
# Where two headings read alike, the source gives them in different places.
# Tests used:
# [1] = system: bleomycin-induced PF; conditions: G. Krishna et al., 2001; cited from earlier work
# [2] = Conversion to triptolide using human serum; assay type: in vitro ADME
# Source text: (Xia Zhi Lin and Zhen You Lan, Haematologica, 93:14 (2008)).
# [3] = in vitro; assay type: cell-based, human; conditions: human; Jurkat cells; test compounds incubated in serum for 24 hrs; read-out: Viability/Cytotoxicity MTT (ED50)
# Method: (§1) Test compounds may be dissolved in DMSO at a concentration of 20 mM. Further dilutions may be done in RPMI1640 medium (GIBCO, Rockville, Md.) supplemented with 10% Fetal Calf Serum (HyClone Laboratories, Logan, Utah).
# (§2) Cytotoxicity of the compounds is determined in a standard MTT assay using Cell Proliferation Kit I (#1 465 007, Roche Diagnostics, Mannheim, Germany). Briefly, human T cell lymphoma (Jurkat) cells (4×10^5 per well) are cultured for 24 h, in 96-well tissue culture plates, in the presence of serial three-fold dilutions of test compounds or medium containing the same concentration of DMSO as in the test samples at each dilution point. The cultures are then supplemented with 10 μl/well MTT reagent for 4 h and then with 0.1 ml/well solubilizing reagent for an additional 16 h. Optical density at 570 nm (OD570) is measured on a ThermoScan microplate reader (Molecular Devices, Menlo Park, Calif.).
# [4] = system: human T cell lymphoma (Jurkat) cells; assay: in vitro; assay type: cell-based
# Method: as §1, §2
# [5] = system: IL-2 production by Jurkat cells; assay: cells; assay type: cell-based, human; conditions: for IC50: read-out: Immunosuppression IL-2 (IC50)
# Method: Test samples can be diluted to 1 mM in complete tissue culture medium. Aliquots are placed in microculture plates coated with anti-CD3 antibody (used to stimulate the production of IL-2 by Jurkat cells), and serial dilutions are prepared so that the final concentration encompass the range of 0.001 to 10,000 nM in log increments. Cells from an exponentially expanding culture of Jurkat human T cell line (#TIB-152 obtained from American Type Culture Collection, Manassas, Va.) are harvested, washed once by centrifugation, re-suspended in complete tissue culture medium, and diluted to a concentration of 2×10^6 cells/ml. A volume of 50 μl of Jurkat cells (1×10^5 cells) is added to wells containing 100 μl of the diluted compounds, 50 μl of PMA (10 ng/ml) is added to each well, and the plates are incubated at 37° C. in a 5% CO2 incubator. After 24 hours, the plates are centrifuged to pellet the cells, 150 μl of supernatant is removed from each well, and the samples are stored at −20° C. The stored supernatants are analyzed for human IL-2 concentration using the Luminex 100 (Luminex Corporation, Austin, Tex.), Luminex microspheres coupled with anti-IL-2 capture antibody, and fluorochrome-coupled anti-IL-2 detection antibody. The data are expressed as pg/ml of IL-2.
# [6] = system: IL-2 production by Jurkat cells; conditions: cited from earlier work
# [7] = system: human T cell lymphoma (Jurkat) cells; conditions: cited from earlier work
# [8] = system: primary cultured rat mesencephalic neurons; conditions: Li et al., 2003; cited from earlier work
# [9] = system: rat model of PD; conditions: 0.5-1 μg/kg; Cheng et al., 2002; cited from earlier work
# [10] = system: patients with AML; conditions: given intravenously; Xia Zhi Lin and Zhen You Lan 2008; cited from earlier work
# [11] = TK: plasma triptolide levels, Calvert study (emulsion); assay type: in vivo, rodents; conditions: for Plasma Triptolide Concentration: 0.15 mg/kg (emulsion)
# Method: Triptolide prodrugs are generally believed to be safer than triptolide. […] Triptolide prodrugs as an emulsion formulation are believed to have a toxicokinetic profile characterized by a flat AUC with a minimized Cmax. [In conjunction, it was postulated that a sustained inhibition of RNA polymerase is needed for optimum efficacy which in turn requires a pharmcokinetic profile of constant exposure to drug]. […] The no effect dose (“NOAEL”) of PG796(MRx102) again exceeded 1.5 mg/kg/day intravenously for seven days in rodents confirming the initial results. It is interesting to ask why a prodrug of triptolide would be safer than the natural product itself; while not wishing to be bound by theory, perhaps the answer lies in the pharmacokinetic profile of triptolide administered either directly or released from its carrier, PG796(MRx102). […] It also remained above the therapeutic levels (shown as a thick line without symbols). The difference in the Cmax/AUC profile of PG796(MRx102) vs. triptolide is believed to be due to the physiochemical properties of the lipid prodrug/emulsion formulation combination. In general, triptolide prodrugs having a cLogP greater than 0.5 are more lipid-soluble than water soluble and are expected to take longer to convert to the drug form; such characteristics may yield a flatter conversion profile and less of a drug-release Cmax spike.
# TK comparison of triptolide levels in Calvert and SRI studies—Males and Females
# [12] = molecular target: T1, human XPB (also known as ERCC3) (Homo sapiens, UniProt P19447); conditions: Titov et al. 2011; cited from earlier work
# T1 sequence (P19447 1-782): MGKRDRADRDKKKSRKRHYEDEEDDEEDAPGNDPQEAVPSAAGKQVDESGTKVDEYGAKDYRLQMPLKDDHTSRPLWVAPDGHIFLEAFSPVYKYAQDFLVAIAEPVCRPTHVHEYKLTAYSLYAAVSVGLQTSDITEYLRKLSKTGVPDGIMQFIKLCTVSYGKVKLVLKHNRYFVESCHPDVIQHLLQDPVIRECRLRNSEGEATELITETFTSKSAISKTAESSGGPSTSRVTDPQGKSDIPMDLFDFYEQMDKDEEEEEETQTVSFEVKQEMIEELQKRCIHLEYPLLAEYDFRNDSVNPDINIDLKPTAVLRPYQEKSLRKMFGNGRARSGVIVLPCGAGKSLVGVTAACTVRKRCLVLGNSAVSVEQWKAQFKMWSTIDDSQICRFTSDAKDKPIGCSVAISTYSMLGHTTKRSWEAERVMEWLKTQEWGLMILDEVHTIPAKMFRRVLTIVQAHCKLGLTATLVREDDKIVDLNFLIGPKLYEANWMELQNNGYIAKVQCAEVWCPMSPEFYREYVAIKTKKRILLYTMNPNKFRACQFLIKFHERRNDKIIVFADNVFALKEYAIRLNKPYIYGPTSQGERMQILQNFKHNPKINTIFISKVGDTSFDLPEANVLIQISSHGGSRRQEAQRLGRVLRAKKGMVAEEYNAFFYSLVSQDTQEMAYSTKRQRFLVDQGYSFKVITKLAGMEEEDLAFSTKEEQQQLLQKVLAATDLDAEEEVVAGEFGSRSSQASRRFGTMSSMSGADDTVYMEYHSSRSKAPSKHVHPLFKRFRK
# [13] = system: PC12 cells; conditions: cited from earlier work
# [14] = system: lipopolysaccharide (LPS)-activated microglial activity; conditions: Zhou et al., 2003; cited from earlier work
# [15] = system: primary mesencephalic neuron/glia mixed culture; conditions: Li et al., 2004; cited from earlier work
# [16] = incubated in human serum compared with mouse serum
# [17] = FIG. 1, triptolide provided alone
compound,measurement,setting,value
14-succinimide ester of triptolide,bleomycin-induced PF,[1],block bleomycin-induced PF
CC(C)[C@]12O[C@H]1[C@@H]1O[C@]13[C@]1(O[C@H]1C[C@H]1C4=C(CC[C@@]13C)C(=O)OC4)[C@@H]2OC(=O)CCC(=O)[O-].[Na+] [PG490-88Na],conversion to triptolide in human serum,[2],incompletely converted
CC(C)[C@]12O[C@H]1[C@@H]1O[C@]13[C@@]1(OC(=O)O[C@H]21)[C@H](Cl)C[C@H]1C2=C(CC[C@@]13C)C(=O)OC2 [PG762],EC50 at 24 h,[3],60 nM
same,cytotoxic activity in MTT assay (in words),"[4]; Jurkat cells, comparison with triptolide or PG490-88",comparable potency
same,IC50,"[5]; Homo sapiens, Jurkat, 24 h",9 nM
"CC(C)[C@]12O[C@H]1[C@@H]1O[C@]13[C@]1(O[C@H]1C[C@H]1C4=C(CC[C@@]13C)C(=O)OC4)[C@H]2F [PG763, 14-deoxy-14α-fluoro triptolide]","inhibition of IL-2 (as reported in U.S. application 60/449,976)",[6],inhibition of IL-2
same,"cytotoxicity in Jurkat cells (as reported in U.S. application 60/449,976)",[7],cytotoxicity in human T cell lymphoma (Jurkat) cells
CC(C)[C@]1(O)[C@H](Cl)[C@@H]2O[C@]23[C@]2(O[C@H]2C[C@H]2C4=C(CC[C@@]23C)C(=O)OC4)[C@@H]1O [Tripchlorolide],protection from neurotoxic lesion induced by 1-methyl-4-phenylpyridinium ion,[8],protects dopaminergic neurons
same,recovery of rats undergoing neurosurgery,[9],improves recovery
triptolide 14-succinate [PG490-88],activity in MTT assay after incubation in human serum vs mouse serum,[4]; [16],much less active
same,activity in IL-2 inhibition assay after incubation in human serum vs mouse serum,[5]; [16],much less active
same,clinical activity in patients with AML,[10],promising activity
triptolide [PG490],IC50,"[5]; Jurkat cells, test compounds incubated in serum for 24 hrs",4 nM
same,Plasma Triptolide Concentration,"[11]; females, 0 hrs",0 ng/mL
same,Plasma Triptolide Concentration,"[11]; females, 0.25 hrs",74.6 ng/mL
same,Plasma Triptolide Concentration,"[11]; females, 0.5 hrs",18.4 ng/mL
same,Plasma Triptolide Concentration,"[11]; females, 1 hrs",13.2 ng/mL
same,Plasma Triptolide Concentration,"[11]; females, 2 hrs",0 ng/mL
same,Plasma Triptolide Concentration,"[11]; females, 24 hrs",0 ng/mL
same,Plasma Triptolide Concentration,"[11]; males, 0 hrs",0 ng/mL
same,Plasma Triptolide Concentration,"[11]; males, 0.25 hrs",59.0 ng/mL
same,Plasma Triptolide Concentration,"[11]; males, 0.5 hrs",14.9 ng/mL
same,Plasma Triptolide Concentration,"[11]; males, 1 hrs",3.6 ng/mL
same,Plasma Triptolide Concentration,"[11]; males, 2 hrs",0 ng/mL
same,Plasma Triptolide Concentration,"[11]; males, 24 hrs",0 ng/mL
same,triptolide Cmax (in words),[11]; [17],very high Cmax
same,triptolide in circulation by two hours post-dose,[11]; [17],none remained in circulation
same,DNA-dependent ATPase activity of XPB,[12],inhibit
same,binding to human XPB,[12],covalently bind
same,β-amyloid-induced apoptosis,[13],markedly inhibit
same,"LPS-activated microglial activity (nitrite accumulation, TNF-α and IL-1β release)",[14],powerful inhibitory influence
same,LPS-induced decrease in 3H-dopamine uptake and loss of tyrosine hydroxylase-positive neurons,[15],attenuates
